# Laboratory results: ChEMBL document CHEMBL4130367, “Click chemistry-based synthesis and anticancer activity evaluation of novel C-14 1,2,3-triazole dehydroabietic acid hybrids” (Eur J Med Chem, 2017)
# How the values were obtained:
# [1] = test system: PC-3; assay: Cytotoxicity against human PC3 cells assessed as reduction in cell viability after 72 hrs by MTT assay; format: functional, cell-based; conditions: PC-3, 72 h
# [2] = test system: MCF7; assay: cells; conditions: Homo sapiens, MCF7, 72 h
# Description: Cytotoxicity against human MCF7 cells assessed as reduction in cell viability after 72 hrs by MTT assay
# [3] = Octanol-water partition coefficient, log P of the compound; format: physicochemical
# [4] = test system: SK-OV-3; assay: Cytotoxicity against human SKOV3 cells assessed as reduction in cell viability after 72 hrs by MTT assay; format: functional, cell-based; conditions: SK-OV-3, 72 h
# [5] = test system: MDA-MB-231; assay: Cytotoxicity against human MDA-MB-231 cells assessed as reduction in cell viability after 72 hrs by MTT assay; format: functional, cell-based; conditions: MDA-MB-231, 72 h
# [6] = test system: NCI/ADR-RES; assay: Growth inhibition of human MCF7/ADR cells at 2.5 to 5 uM after 72 hrs by MTT assay relative to control; format: functional
# [7] = test system: NCI/ADR-RES; assay: Growth inhibition of human MCF7/ADR cells after 72 hrs by MTT assay; format: functional, cell-based
smiles,measurement,setting,value
COC(=O)[C@]1(C)CCC[C@]2(C)c3ccc(C(C)C)c(NC(=O)Cn4cc(-c5ccccc5F)nn4)c3CC[C@@H]12,IC50,[1],8.7 µM
same,IC50,[2],19.4 µM
same,logP,[3],5.36
same,IC50,[4],15.2 µM
same,IC50,[5],10 µM
COC(=O)[C@]1(C)CCC[C@]2(C)c3ccc(C(C)C)c(NC(=O)Cn4cc(-c5ccccc5)nn4)c3CC[C@@H]12,IC50,[1],3.4 µM
same,IC50,[2],3.7 µM
same,logP,[3],5.2
same,IC50,[4],4.8 µM
same,IC50,[5],3 µM
COC(=O)[C@]1(C)CCC[C@]2(C)c3ccc(C(C)C)c(NC(=O)Cn4cc(-c5ccccn5)nn4)c3CC[C@@H]12,IC50,[1],> 100 µM
same,IC50,[2],> 100 µM
same,logP,[3],4.05
same,IC50,[4],> 100 µM
same,IC50,[5],> 100 µM
COC(=O)[C@]1(C)CCC[C@]2(C)c3ccc(C(C)C)c(NC(=O)Cn4cc(-c5cccc([N+](=O)[O-])c5)nn4)c3CC[C@@H]12,IC50,[1],> 100 µM
same,IC50,[2],91.1 µM
same,logP,[3],5.13
same,IC50,[4],> 100 µM
same,IC50,[5],87.5 µM
COC(=O)[C@]1(C)CCC[C@]2(C)c3ccc(C(C)C)c(NC(=O)Cn4cc(C5CC5)nn4)c3CC[C@@H]12,IC50,[1],12.3 µM
same,IC50,[2],24.2 µM
same,logP,[3],4.11
same,IC50,[4],19.4 µM
same,IC50,[5],16.2 µM
O=c1[nH]cc(F)c(=O)[nH]1 [FLUOROURACIL],IC50,[1],13.7 µM
same,IC50,[2],5.2 µM
same,IC50,[4],20.8 µM
same,IC50,[5],24.5 µM
COC(=O)[C@]1(C)CCC[C@]2(C)c3ccc(C(C)C)c(N)c3CC[C@@H]12,IC50,[1],25.4 µM
same,IC50,[2],31.1 µM
same,IC50,[4],6.1 µM
same,IC50,[5],24.1 µM
COC(=O)[C@]1(C)CCC[C@]2(C)c3ccc(C(C)C)c(NC(=O)Cn4cc(-c5ccc6ccccc6c5)nn4)c3CC[C@@H]12,IC50,[1],9.1 µM
same,IC50,[2],12.1 µM
same,logP,[3],6.38
same,IC50,[4],45.3 µM
same,IC50,[5],27 µM
COC(=O)[C@]1(C)CCC[C@]2(C)c3ccc(C(C)C)c(NC(=O)Cn4cc(-c5cccs5)nn4)c3CC[C@@H]12,IC50,[1],> 100 µM
same,IC50,[2],> 100 µM
same,logP,[3],4.98
same,IC50,[4],> 100 µM
same,IC50,[5],57.1 µM
COC(=O)[C@]1(C)CCC[C@]2(C)c3ccc(C(C)C)c(NC(=O)Cn4cc(-c5ccncc5)nn4)c3CC[C@@H]12,IC50,[1],> 100 µM
same,IC50,[2],> 100 µM
same,logP,[3],3.91
same,IC50,[4],> 100 µM
same,IC50,[5],> 100 µM
COC(=O)[C@]1(C)CCC[C@]2(C)c3ccc(C(C)C)c(NC(=O)Cn4cc(-c5cccc(OC)c5)nn4)c3CC[C@@H]12,growth inhibition (GI),[6],>50%
same,IC50,[1],1.1 µM
same,IC50,[2],0.8 µM
same,logP,[3],5.23
same,IC50,[4],0.9 µM
same,IC50,[5],1.4 µM
same,growth inhibition (GI),[7],Dose-dependent effect
COC(=O)[C@]1(C)CCC[C@]2(C)c3ccc(C(C)C)c(NC(=O)Cn4cc(-c5ccc(-c6ccccc6)cc5)nn4)c3CC[C@@H]12,IC50,[1],11.1 µM
same,IC50,[2],9.5 µM
same,logP,[3],6.99
same,IC50,[4],16 µM
same,IC50,[5],8.9 µM
COC(=O)[C@]1(C)CCC[C@]2(C)c3ccc(C(C)C)c(NC(=O)Cn4cc(-c5cc(OC)cc(OC)c5)nn4)c3CC[C@@H]12,IC50,[1],5.2 µM
same,IC50,[2],8.9 µM
same,logP,[3],5.24
same,IC50,[4],3.3 µM
same,IC50,[5],1.4 µM
COC(=O)[C@]1(C)CCC[C@]2(C)c3ccc(C(C)C)c(NC(=O)Cn4cc(CBr)nn4)c3CC[C@@H]12,IC50,[1],> 100 µM
same,IC50,[2],> 100 µM
same,logP,[3],4.47
same,IC50,[4],> 100 µM
same,IC50,[5],60 µM
COC(=O)c1nnn(CC(=O)Nc2c(C(C)C)ccc3c2CC[C@H]2[C@](C)(C(=O)OC)CCC[C@]32C)c1C(=O)OC,IC50,[1],49 µM
same,IC50,[2],15.6 µM
same,logP,[3],3.67
same,IC50,[4],25.3 µM
same,IC50,[5],8.2 µM
COC(=O)[C@]1(C)CCC[C@]2(C)c3ccc(C(C)C)c(NC(=O)Cn4cc(-c5ccc(OC(F)(F)F)cc5)nn4)c3CC[C@@H]12,IC50,[1],12.1 µM
same,IC50,[2],9.2 µM
same,logP,[3],6.17
same,IC50,[4],20.3 µM
same,IC50,[5],23.4 µM
COC(=O)[C@]1(C)CCC[C@]2(C)c3ccc(C(C)C)c(NC(=O)CCl)c3CC[C@@H]12,IC50,[1],71.2 µM
same,IC50,[2],51.6 µM
same,IC50,[4],69.7 µM
same,IC50,[5],> 100 µM
CC(C)[C@]12O[C@H]1[C@@H]1O[C@@]13[C@@]1(C)CCC4=C(COC4=O)[C@@H]1C[C@@H]1O[C@@]13C2=O [TRIPTONIDE],IC50,[1],0.02 µM
same,IC50,[2],0.03 µM
same,IC50,[5],0.03 µM
COC(=O)[C@]1(C)CCC[C@]2(C)c3ccc(C(C)C)c(NC(=O)CN=[N+]=[N-])c3CC[C@@H]12,IC50,[1],> 100 µM
same,IC50,[2],52.1 µM
same,IC50,[4],> 100 µM
same,IC50,[5],60.7 µM
CCOC(=O)c1cn(CC(=O)Nc2c(C(C)C)ccc3c2CC[C@H]2[C@](C)(C(=O)OC)CCC[C@]32C)nn1,IC50,[1],15.4 µM
same,IC50,[2],16.1 µM
same,logP,[3],3.97
same,IC50,[4],22.9 µM
same,IC50,[5],21.3 µM
COC(=O)[C@]1(C)CCC[C@]2(C)c3ccc(C(C)C)c(NC(=O)Cn4cc(-c5cccc(F)c5)nn4)c3CC[C@@H]12,IC50,[1],> 100 µM
same,IC50,[2],68.8 µM
same,logP,[3],5.34
same,IC50,[4],91.2 µM
same,IC50,[5],> 100 µM
COC(=O)[C@]1(C)CCC[C@]2(C)c3ccc(C(C)C)c(NC(=O)Cn4cc(-c5cccc(NC(C)=O)c5)nn4)c3CC[C@@H]12,IC50,[1],10.1 µM
same,IC50,[2],1.5 µM
same,logP,[3],4.39
same,IC50,[4],3.9 µM
same,IC50,[5],5.9 µM
COC(=O)[C@]1(C)CCC[C@]2(C)c3ccc(C(C)C)c(NC(=O)Cn4cc(CNc5nc(Cl)nc(Cl)n5)nn4)c3CC[C@@H]12,IC50,[1],> 100 µM
same,IC50,[2],> 100 µM
same,logP,[3],5.12
same,IC50,[4],92.1 µM
same,IC50,[5],> 100 µM
COC(=O)[C@]1(C)CCC[C@]2(C)c3ccc(C(C)C)c(NC(=O)Cn4cc(Cc5ccccc5)nn4)c3CC[C@@H]12,IC50,[1],> 100 µM
same,IC50,[2],> 100 µM
same,logP,[3],5.72
same,IC50,[4],59.4 µM
same,IC50,[5],31.9 µM
COC(=O)[C@]1(C)CCC[C@]2(C)c3ccc(C(C)C)c(NC(=O)Cn4cc(-c5ccc(OC)cc5)nn4)c3CC[C@@H]12,growth inhibition (GI),[6],>50%
same,IC50,[1],1.9 µM
same,IC50,[2],1.4 µM
same,logP,[3],5.28
same,IC50,[4],1.4 µM
same,IC50,[5],1.8 µM
same,growth inhibition (GI),[7],Dose-dependent effect
COC(=O)[C@]1(C)CCC[C@]2(C)c3ccc(C(C)C)c(NC(=O)Cn4cc(-c5ccccc5OC)nn4)c3CC[C@@H]12,IC50,[1],2.3 µM
same,IC50,[2],1 µM
same,logP,[3],5.21
same,IC50,[4],1.4 µM
same,IC50,[5],1.8 µM
COC(=O)[C@]1(C)CCC[C@]2(C)c3ccc(C(C)C)c(NC(=O)Cn4cc(-c5cccnc5)nn4)c3CC[C@@H]12,IC50,[1],30 µM
same,IC50,[2],> 100 µM
same,logP,[3],4.13
same,IC50,[4],> 100 µM
same,IC50,[5],41.9 µM
COC(=O)[C@]1(C)CCC[C@]2(C)c3ccc(C(C)C)c(NC(=O)Cn4cc(-c5ccc(F)cc5)nn4)c3CC[C@@H]12,IC50,[1],2.6 µM
same,IC50,[2],1.9 µM
same,logP,[3],5.31
same,IC50,[4],1.8 µM
same,IC50,[5],1 µM
COC(=O)[C@]1(C)CCC[C@]2(C)c3ccc(C(C)C)c(NC(=O)Cn4cc(-c5ccc([N+](=O)[O-])cc5)nn4)c3CC[C@@H]12,IC50,[1],> 100 µM
same,IC50,[2],> 100 µM
same,logP,[3],5.16
same,IC50,[4],77.3 µM
same,IC50,[5],> 100 µM
COC(=O)[C@]1(C)CCC[C@]2(C)c3ccc(C(C)C)c(NC(=O)Cn4cc([Si](C)(C)C)nn4)c3CC[C@@H]12,IC50,[1],94.3 µM
same,IC50,[2],> 100 µM
same,logP,[3],6.04
same,IC50,[4],65.2 µM
same,IC50,[5],> 100 µM
